{"source": "patent US20250051820A1", "about": "(priority 2021, published 2025)", "key": {"High Five cells [1]": {"tested_on": "High Five cells", "protocol": "High Five cells (Thermo Fisher Scientific, Express Five™ SFM) were seeded at a seeding concentration of 1×10^6 cells/mL so as to satisfy a culture scale of 30 mL. Twenty-four hours after the initiation of culture, calcium chloride was added so as to increase a final concentration by 1, 10 and 100 mM. Here, a calcium chloride-free group was used as a control. From day 3 to 5, the cell culture solution was sampled and stained with a 0.2% trypan blue solution. The numbers of viable cells and dead cells were counted by a hemocytometer. From the total cell count and the viable-cell count, the rate of viable cells was calculated."}, "High Five cells [2]": {"tested_on": "High Five cells", "settings": "MOI=0.5, day 4 supernatant; for improvement of the yield of the recombinant protein: relative to absence of calcium chloride", "protocol": "A High Five cell culture solution in which cells were seeded at a seeding concentration of 1×10^6 cells/mL so as to satisfy a culture scale of 30 mL, was infected with a recombinant baculovirus prepared by integrating a gene sequence of a norovirus VP1 protein, at MOI=0.5. On Day 1 after the initiation of culture, calcium chloride was added so as to increase a final concentration by 2.5, 25, 250, 500 and 1 000 μM, and then, the cell culture was continued. On day 3, Benzonase (Merck) was added so as to be a final concentration of 50 U/mL and […] protease inhibitor tablets (Thermo Fisher Scientific) was added, and then, the cell culture was continued. On day 4, the culture supernatant was collected in the same manner as in Example 2 and subjected to Western Blotting.\nFor Western Blotting, after electrophoresis was carried out in the same manner as in Example 1, a transfer reaction was carried out from the gel to PVDF membrane (Merck) by a semi-dry transfer device (ATTO CORPORATION). After the transfer reaction, the PVDF membrane was soaked in a 10% skim milk-containing TBS and incubated at room temperature for two hours. After the PVDF membrane was washed three times with an appropriate amount of TBS and soaked in an anti-norovirus VP1 protein antibody (manufactured by the inventors) diluted with a 1% skim milk-containing TBST and incubated at 4° C. for from 18 to 20 hours. The PVDF membrane was washed five times with an appropriate amount of TBST, soaked in a HRP-labeled anti-mouse antibody (Jackson Immuno Research Laboratories) diluted with 1% skim milk-containing TBST, and incubated at room temperature for one hour. The PVDF membrane was washed five times with an appropriate amount of TBST and allowed to develop color with Western Lightning-Plus ECL (Perkin Elmer). The PVDF membrane was photographed by an image analyzer (Bio-Rad) and subjected to densitometric analysis.\nDensitometric analysis was carried out in the same manner as in Example 1, and the relative amount of VP1 to the condition in the absence of calcium chloride was calculated."}, "High Five cells [3]": {"tested_on": "High Five cells", "settings": "for VP1 band intensity (relative value): MOI=0.1, day 4 supernatant, negative control = 100%", "protocol": "High Five cells (Thermo Fisher Scientific, Express Five™ SFM) were seeded at a seeding concentration of 1×10^6 cells/mL so as to satisfy a culture scale of 30 mL."}}, "note": "Read-outs that look alike come from different tables or passages of the source.", "data": [{"molecule": "[Ca+2].[Cl-].[Cl-]", "note": "[calcium chloride]", "values": [{"measurement": "concentration of calcium chloride that is not cytotoxic", "setting": "High Five cells [1]; High Five cells, day 3 to 5", "result": "≤ 1000", "unit": "µM"}, {"measurement": "viable cell rate", "setting": "High Five cells [1]; calcium chloride final concentration increased by 1 mM, added 24 h after initiation of culture, day 3 to 5, versus calcium chloride-free control", "result": "the same as in the control"}, {"measurement": "viable cell rate", "setting": "High Five cells [1]; calcium chloride final concentration increased by 10 mM, day 3", "result": "low"}, {"measurement": "viable cell rate", "setting": "High Five cells [1]; calcium chloride final concentration increased by 100 mM, day 3", "result": "low"}, {"measurement": "improvement of the yield of the recombinant protein", "setting": "High Five cells [2]; calcium chloride 25 μM added on Day 1", "result": "about 40%"}, {"measurement": "improvement of the yield of the recombinant protein", "setting": "High Five cells [2]; calcium chloride 250 μM added on Day 1", "result": "about 40%"}, {"measurement": "yield of the recombinant protein", "setting": "High Five cells [2]; calcium chloride 500 μM added on Day 1", "result": "seems to decrease"}, {"measurement": "yield of the recombinant protein", "setting": "High Five cells [2]; calcium chloride 1 000 μM added on Day 1", "result": "seems to decrease"}, {"measurement": "VP1 band intensity (relative value)", "setting": "High Five cells [3]; 25 μM calcium chloride added 0 hr after infection", "result": 102, "unit": "%"}, {"measurement": "improvement of the yield of a protein of interest", "setting": "High Five cells [3]; 25 μM calcium chloride added 24 hours after the initiation of culture, relative to absence of calcium chloride", "result": "about 108"}, {"measurement": "VP1 band intensity (relative value)", "setting": "High Five cells [3]; 25 μM calcium chloride added 24 hr after infection", "result": 111, "unit": "%"}, {"measurement": "VP1 band intensity (relative value)", "setting": "High Five cells [3]; 25 μM calcium chloride added 48 hr after infection", "result": 102, "unit": "%"}]}]}
